Consider 4 compounds from the NIST ThermoML archive (doi:10.1016/j.fluid.2005.09.025).

± gives the expanded uncertainty stated by the source.

For the data set the following is noted: 298.15 K, 101.33 kPa, Liquid.

Regarding `CCCC(C)C` [2-methylpentane], where the note is “Vibrating tube method”, the mass density was 648.45 ± 0.22 kg/m3.

For `CN(C)C=O` [dimethylformamide], the mass density (Vibrating tube method) was 943.81 ± 0.09 kg/m3.

Consider `CO` [methanol], for which the mass density (Vibrating tube method) came out at 786.55 ± 0.16 kg/m3. On to `CC1CCCCC1` [methylcyclohexane], for which the mass density stood at 764.96 ± 0.35 kg/m3.

What is called mass density is the mass of a sample divided by its volume.
